Data published in paper PMC12584665, “In vitro and in vivo efficacy of vancomycin against Elizabethkingia species and the impact of increased vancomycin MICs” (Microbiology Spectrum, 2025).

Test: Serum drug levels in mice (LC-MS/MS)
Assay type: in vivo
Settings: single dose 25 mg/kg subcutaneous, mice, LC-MS/MS; in contrast to 100 mg/kg; 6 to 8 mice per group
Description: Fifty microliters of aliquots of murine serum was mixed with 100 µL acetonitrile. The mixture was vortexed and then centrifuged at 15,000 × g for 20 min in a Beckman Coulter Microfuge 22R Centrifuge at room temperature. The supernatant was transferred to a clean tube, and then 15 µL of the supernatant was injected onto LC-MS/MS. The chromatographic system consisted of an Agilent 1200 series LC system and an Agilent ZORBAX Eclipse XDB-C8 column (5 µm, 3.0 × 150 mm) interfaced to an MDS Sciex API3000 tandem mass spectrometer. The MS/MS ion transitions monitored were m/z 725/144 for vancomycin. A gradient HPLC method was employed for separation. Mobile phase A consisted of 10 mM ammonium acetate aqueous solution containing 0.1% formic acid and mobile phase B consisted of acetonitrile. The gradient profile was as follows (min/%B): 0.0–0.9/5, 1.0–2.0/50, 2.1–3.7/95, 3.8–5.0/5. The flow rate was set at 1.5 mL/min.

**Q.** For CN[C@H](CC(C)C)C(=O)N[C@H]1C(=O)N[C@@H](CC(N)=O)C(=O)N[C@H]2C(=O)N[C@H]3C(=O)N[C@H](C(=O)N[C@H](C(=O)O)c4cc(O)cc(O)c4-c4cc3ccc4O)[C@H](O)c3ccc(c(Cl)c3)Oc3cc2cc(c3O[C@@H]2O[C@H](CO)[C@@H](O)[C@H](O)[C@H]2O[C@H]2C[C@](C)(N)[C@H](O)[C@H](C)O2)Oc2ccc(cc2Cl)[C@H]1O [Vancomycin], which serum concentration-time profile is on record?
**A.** resembled that of humans
